Test results from patent publication US20200323225A1, “LIPASE INHIBITORS TO PREVENT RANCIDITY IN EXPRESSED HUMAN MILK DURING STORAGE” (STC.UNM, priority 2017, published 2020).

Legend:
LPL [1] = assay: Lipase activity inhibition in raw milk samples after incubation with Orlistat; assay type: biochemical; conditions: raw milk samples (n=2); 10 μM Orlistat; incubated 1 h (FIG. 4)
Method: FIG. 4 is a graph sowing lipase activity inhibition after incubation with Orlistat. […] LPL activity in milk spiked with 6 pmol LPL and increasing levels of Orlistat (an LPL inhibitor) was monitored over the course of 20 min (FIG. 3). […] Raw milk samples were also treated with this level of Orlistat (10 μM) (FIG. 4).

LPL [2] = target: T1, LPL (Homo sapiens, UniProt P06858); assay: LPL activity in milk spiked with 6 pmol LPL, with increasing levels of Orlistat; assay type: biochemical; conditions: 10 μM Orlistat, monitored over 20 min (FIG. 3)
T1 sequence (P06858 28-475): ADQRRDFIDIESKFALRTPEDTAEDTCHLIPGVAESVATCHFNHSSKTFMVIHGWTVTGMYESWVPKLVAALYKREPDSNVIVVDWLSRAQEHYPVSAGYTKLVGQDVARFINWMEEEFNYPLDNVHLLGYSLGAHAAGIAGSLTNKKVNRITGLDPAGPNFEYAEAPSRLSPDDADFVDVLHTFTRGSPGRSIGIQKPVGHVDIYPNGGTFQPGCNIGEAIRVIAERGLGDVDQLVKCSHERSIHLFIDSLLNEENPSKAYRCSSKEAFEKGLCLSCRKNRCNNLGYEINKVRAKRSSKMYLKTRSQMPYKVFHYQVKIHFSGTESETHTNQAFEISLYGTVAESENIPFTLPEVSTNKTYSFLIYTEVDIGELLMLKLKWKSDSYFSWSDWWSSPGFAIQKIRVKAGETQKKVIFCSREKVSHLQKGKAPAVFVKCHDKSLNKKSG
Method: FIG. 3 is a graph showing measurement of LPL activity in milk spiked with 6 pmol LPL in the absence or presence of LPL inhibitor, Orlistat.
LPL activity in milk spiked with 6 pmol LPL and increasing levels of Orlistat (an LPL inhibitor) was monitored over the course of 20 min (FIG. 3). […] Raw milk samples were also treated with this level of Orlistat (10 μM) (FIG. 4).

Q: What does the source list for `CCCCCCCCCCC[C@@H](C[C@@H]1OC(=O)[C@H]1CCCCCC)OC(=O)[C@H](CC(C)C)NC=O` [Orlistat]?
A: decrease in lipase activity (LPL) (LPL [1]): 22%; reduction in LPL activity (LPL [2]): most significant reduction in LPL
